From US20260248783A1 (ASCLETIS BIOSCIENCE CO., LTD., priority 2021, published 2026) come the findings set out here.

Structures can show the parent of a compound that is named as a salt.

T1 sequence (Q9NZQ7 19-238): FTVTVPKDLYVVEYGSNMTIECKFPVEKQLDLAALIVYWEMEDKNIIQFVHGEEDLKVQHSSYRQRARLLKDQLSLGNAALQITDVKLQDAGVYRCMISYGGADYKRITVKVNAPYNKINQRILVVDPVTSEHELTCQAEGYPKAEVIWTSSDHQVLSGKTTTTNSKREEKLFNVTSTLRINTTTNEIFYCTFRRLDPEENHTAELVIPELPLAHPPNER

This assay has as its target T1, PD-1/PD-L1 (Homo sapiens, UniProt Q9NZQ7).
T1 construct: Recombinant human PD-L1 protein (19-238) with a Histag at the C-terminus; purchased AcroBiosystems PD1-H5229 (PD-L1); PD1-H5257 (PD-1)
Description: PD-1/PD-L1 Homogeneous Time-Resolved Fluorescence (HTRF) Binding Assay. To be noted: PD-1/PD-L1 HTRF activity; 3 nM PD1, 10 nM PD-L1, 25° C. How it is done:
Example 107. PD-1/PD-L1 Homogeneous Time-Resolved Fluorescence (HTRF) Binding Assay
The assays were conducted in a standard black 384-well polystyrene plate with a final volume of 20 μL. Inhibitors were first serially diluted in DMSO and then added to the plate wells before the addition of other reaction components. The final concentration of DMSO in the assay was 1%. The assays were carried out at 25° C. in the PBS buffer (pH 7.4) with 0.05% Tween-20 and 0.1% BSA. Recombinant human PD-L1 protein (19-238) with a Histag at the C-terminus was purchased from AcroBiosystems (PD1-H5229). Recombinant human PD-1 protein (25-167) with Fe tag at the C-terminus was also purchased from AcroBiosystems (PD1-H5257). PD-L1 and PD-1 proteins were diluted in the assay buffer and 10 μL was added to the plate well. Plates were centrifuged and proteins were preincubated with inhibitors for 40 minutes. The incubation was followed by the addition of 10 μL of HTRF detection buffer supplemented with Europium cryptate-labeled anti-human IgG (PerkinElmer-AD0212) specific for Fe and anti-His antibody conjugated to SureLight®—Allophycocyanin (APC, PerkinElmer-AD0059H). After centrifugation, the plate was incubated at 25° C. for 60 min. before reading on a PHERAstar FS plate reader (665 nm/620 nm ratio). Final concentrations in the assay were […], 10 nM PD-L1, 1 nM europium anti-human IgG and 20 nM anti-His-Allophycocyanin. IC50 determination was performed by fitting the curve of percent control activity versus the log of the inhibitor concentration.
On the technique in general: In TR-FRET formats the signal depends on donor and acceptor labels being close together.
On to `O=C(O)CCn1cnn2cc(-c3cccc(-c4cccc(-c5cc6c(=O)n(CCC(=O)O)cnn6c5)c4Cl)c3Cl)cc2c1=O` [Compound 24, 3,3′-((2,2′-dichloro-[1,1′-biphenyl]-3,3′-diyl)bis(4-oxopyrrolo[2,1-f][1,2,4]triazine-6,3(4H)-diyl))dipropionic acid], for which the IC50 is at least 100 nM.
The same measure for `O=c1c2cc(-c3cccc(-c4cccc(-c5cc6c(=O)n(CCn7nccn7)cnn6c5)c4Cl)c3Cl)cn2ncn1CCn1nccn1` [Compound 25, 6,6′-(2,2′-dichloro-[1,1′-biphenyl]-3,3′-diyl)bis(3-(2-(2H-1,2,3-triazol-2-yl)ethyl)pyrrolo[2,1-f][1,2,4]triazin-4(3H)-one)]: 10 to 100 nM; for `CN1CCN(CCn2cnn3cc(-c4cccc(-c5cccc(-c6cc7c(=O)n(CCN8CCN(C)CC8)cnn7c6)c5Cl)c4Cl)cc3c2=O)CC1` [Compound 26, 6,6′-(2,2′-dichloro-[1,1′-biphenyl]-3,3′-diyl)bis(3-(2-(4-methylpiperazin-1-yl)ethyl)pyrrolo[2,1-f][1,2,4]triazin-4(3H)-one)]: at least 100 nM.
The same measure for `O=C1CCC(Cn2cnn3cc(-c4cccc(-c5cccc(-c6cc7c(=O)n(CC8CCC(=O)O8)cnn7c6)c5Cl)c4Cl)cc3c2=O)O1` (stereo not shown) [Compound 27, 6,6′-(2,2′-dichloro-[1,1′-biphenyl]-3,3′-diyl)bis(3-((5-oxotetrahydrofuran-2-yl)methyl)pyrrolo[2,1-f][1,2,4]triazin-4(3H)-one)]: at least 100 nM; for `O=C(O)CCC(O)Cn1cnn2cc(-c3cccc(-c4cccc(-c5cc6c(=O)n(CC(O)CCC(=O)O)cnn6c5)c4Cl)c3Cl)cc2c1=O` (stereo not shown) [Compound 28, 5,5′-((2,2′-dichloro-[1,1′-biphenyl]-3,3′-diyl)bis(4-oxopyrrolo[2,1-f][1,2,4]triazine-6,3(4H)-diyl))bis(4-hydroxypentanoic acid)]: at least 100 nM.
The same measure for `Cc1cn2nc(-c3cccc(-c4cccc(-c5cc6c(=O)n(C[C@@H]7CCC(=O)N7)c(C)cn6n5)c4Cl)c3Cl)cc2c(=O)n1C[C@@H]1CCC(=O)N1` [Compound 29]: below 10 nM; for `Cc1cn2cc(-c3cccc(-c4cccc(-c5cc6c(=O)n(C[C@@H]7CCC(=O)N7)c(C)cn6c5)c4Cl)c3Cl)cc2c(=O)n1C[C@@H]1CCC(=O)N1` [Compound 30, 7,7′-(2,2′-dichloro-[1,1′-biphenyl]-3,3′-diyl)bis(3-methyl-2-(((S)-5-oxopyrrolidin-2-yl)methyl)pyrrolo[1,2-a]pyrazin-1(2H)-one)]: below 10 nM; for `O=C1CC[C@@H](Cn2c(C3CC3)cn3cc(-c4cccc(-c5cccc(-c6cc7c(=O)n(C[C@@H]8CCC(=O)N8)c(C8CC8)cn7c6)c5Cl)c4Cl)cc3c2=O)N1` [Compound 31, 7,7′-(2,2′-dichloro-[1,1′-biphenyl]-3,3′-diyl)bis(3-cyclopropyl-2-(((S)-5-oxopyrrolidin-2-yl)methyl)pyrrolo[1,2-a]pyrazin-1(2H)-one)]: 10 to 100 nM.
`O=C1CC[C@@H](Cn2c(C3CC3)cn3nc(-c4cccc(-c5cccc(-c6cc7c(=O)n(C[C@@H]8CCC(=O)N8)c(C8CC8)cn7n6)c5Cl)c4Cl)cc3c2=O)N1` [Compound 32, 2,2′-(2,2′-dichloro-[1,1′-biphenyl]-3,3′-diyl)bis(6-cyclopropyl-5-(((S)-5-oxopyrrolidin-2-yl)methyl)pyrazolo[1,5-a]pyrazin-4(5H)-one)]: the IC50 fell in the range of 10 to 100 nM.
`CCc1cn2nc(-c3cccc(-c4cccc(-c5cc6c(=O)n(C[C@@H]7CCC(=O)N7)c(CC)cn6n5)c4Cl)c3Cl)cc2c(=O)n1C[C@@H]1CCC(=O)N1` [Compound 33, 2,2′-(2,2′-dichloro-[1,1′-biphenyl]-3,3′-diyl)bis(6-ethyl-5-(((S)-5-oxopyrrolidin-2-yl)methyl)pyrazolo[1,5-a]pyrazin-4(5H)-one)] showed an IC50 of 10 to 100 nM.
`O=C1CC[C@@H](Cn2c(C3CC3)nn3cc(-c4cccc(-c5cccc(-c6cc7c(=O)n(C[C@@H]8CCC(=O)N8)c(C8CC8)nn7c6)c5Cl)c4Cl)cc3c2=O)N1` [Compound 34, 6,6′-(2,2′-dichloro-[1,1′-biphenyl]-3,3′-diyl)bis(2-cyclopropyl-3-(((S)-5-oxopyrrolidin-2-yl)methyl)pyrrolo[2,1-f][1,2,4]triazin-4(3H)-one)] displayed an IC50 of 10 to 100 nM.
In turn, `Cc1nn2cc(-c3cccc(-c4cccc(-c5cc6c(=O)n(C[C@@H]7CCC(=O)N7)c(C)nn6c5)c4Cl)c3Cl)cc2c(=O)n1C[C@@H]1CCC(=O)N1` [Compound 35, 6,6′-(2,2′-dichloro-[1,1′-biphenyl]-3,3′-diyl)bis(2-methyl-3-(((S)-5-oxopyrrolidin-2-yl)methyl)pyrrolo[2,1-f][1,2,4]triazin-4(3H)-one)] yielded an IC50 below 10 nM.
Then `Cc1cn2nc(-c3cccc(-c4cccc(-c5cc6c(=O)n(C[C@H]7CCCN7)c(C)cn6n5)c4Cl)c3Cl)cc2c(=O)n1C[C@H]1CCCN1` [Compound 37, 2,2′-(2,2′-dichloro-[1,1′-biphenyl]-3,3′-diyl)bis(6-methyl-5-(((R)-pyrrolidin-2-yl)methyl)pyrazolo[1,5-a]pyrazin-4(5H)-one) dihydrochloride], with 10 to 100 nM.
Then `Cc1cn2cc(-c3cccc(-c4cccc(-c5cc6c(=O)n(C[C@@H]7CCCN7)c(C)cn6c5)c4Cl)c3Cl)cc2c(=O)n1C[C@@H]1CCCN1` [Compound 38, 7,7′-(2,2′-dichloro-[1,1′-biphenyl]-3,3′-diyl)bis(3-methyl-2-(((S)-pyrrolidin-2-yl)methyl)pyrrolo[1,2-a]pyrazin-1(2H)-one)], with 10 to 100 nM.
Then `Cc1cn2cc(-c3cccc(-c4cccc(-c5cc6c(=O)n(C[C@H]7CCCN7)c(C)cn6c5)c4Cl)c3Cl)cc2c(=O)n1C[C@H]1CCCN1` [Compound 39, 7,7′-(2,2′-dichloro-[1,1′-biphenyl]-3,3′-diyl)bis(3-methyl-2-(((R)-pyrrolidin-2-yl)methyl)pyrrolo[1,2-a]pyrazin-1(2H)-one)], with 10 to 100 nM.
For `Cn1c(CN2CC[C@H](C(=O)O)C2)cn2nc(-c3cccc(-c4cccc(-c5cc6c(=O)n(C)c(CN7CC[C@H](C(=O)O)C7)cn6n5)c4Cl)c3Cl)cc2c1=O` [Compound 41, (3S,3'S)-1,1′-(((2,2′-dichloro-[1,1′-biphenyl]-3,3′-diyl)bis(5-methyl-4-oxo-4,5-dihydropyrazolo[1,5-a]pyrazine-2,6-diyl))bis(methylene))bis(pyrrolidine-3-carboxylic acid)], the IC50 lay within 10 to 100 nM.
The same measure for `Cn1c(CNCCO)cn2nc(-c3cccc(-c4cccc(-c5cc6c(=O)n(C)c(CNCCO)cn6n5)c4Cl)c3Cl)cc2c1=O` [Compound 42, 2,2′-(2,2′-dichloro-[1,1′-biphenyl]-3,3′-diyl)bis(6-(((2-hydroxyethyl)amino)methyl)-5-methylpyrazolo[1,5-a]pyrazin-4(5H)-one)]: below 10 nM.
For the compound `CC(=O)NCCNCc1cn2cc(-c3cccc(-c4cccc(-c5cc6c(=O)n(C)c(CNCCNC(C)=O)cn6c5)c4Cl)c3Cl)cc2c(=O)n1C` [Compound 44, N,N′-(((((2,2′-dichloro-[1,1′-biphenyl]-3,3′-diyl)bis(2-methyl-1-oxo-1,2-dihydropyrrolo[1,2-a]pyrazine-7,3-diyl))bis(methylene))bis(azanediyl))bis(ethane-2,1-diyl))diacetamide], the half-inhibitory concentration (IC50) was in the range of 10 to 100 nM.
In turn, `Cn1c(CNCCO)cn2cc(-c3cccc(-c4cccc(-c5cc6c(=O)n(C)c(CNCCO)cn6c5)c4Cl)c3Cl)cc2c1=O` [Compound 45, 7,7′-(2,2′-dichloro-[1,1′-biphenyl]-3,3′-diyl)bis(3-(((2-hydroxyethyl)amino)methyl)-2-methylpyrrolo[1,2-a]pyrazin-1(2H)-one)] gave an IC50 below 10 nM.
The same measure for `Cn1c(CN2CC[C@H](O)C2)cn2cc(-c3cccc(-c4cccc(-c5cc6c(=O)n(C)c(CN7CC[C@H](O)C7)cn6c5)c4Cl)c3Cl)cc2c1=O` [Compound 46, 7,7′-(2,2′-dichloro-[1,1′-biphenyl]-3,3′-diyl)bis(3-(((S)-3-hydroxypyrrolidin-1-yl)methyl)-2-methylpyrrolo[1,2-a]pyrazin-1(2H)-one)]: 10 to 100 nM; for `Cc1cn2cc(-c3cccc(-c4cccc(-c5cc6c(=O)n(CCN7CC[C@H](O)C7)c(C)cn6c5)c4Cl)c3Cl)cc2c(=O)n1CCN1CC[C@H](O)C1` [Compound 48, 7,7′-(2,2′-dichloro-[1,1′-biphenyl]-3,3′-diyl)bis(2-(2-((S)-3-hydroxypyrrolidin-1-yl)ethyl)-3-methylpyrrolo[1,2-a]pyrazin-1(2H)-one)]: 10 to 100 nM; for `Cc1cn2cc(-c3cccc(-c4cccc(-c5cc6c(=O)n(CCN7C[C@@H](O)C[C@H]7C(=O)O)c(C)cn6c5)c4Cl)c3Cl)cc2c(=O)n1CCN1C[C@@H](O)C[C@H]1C(=O)O` [Compound 50, (2S,2'S,4S,4'S)-1,1′-(((2,2′-dichloro-[1,1′-biphenyl]-3,3′-diyl)bis(3-methyl-1-oxopyrrolo[1,2-a]pyrazine-7,2(1H)-diyl))bis(ethane-2,1-diyl))bis(4-hydroxypyrrolidine-2-carboxylic acid)]: 10 to 100 nM.

The term IC50 denotes the concentration needed to halve the response being measured. Lower therefore signals greater potency in that assay.
